Where two headings read alike, the source gives them in different places.
How the values were obtained:
Format in all cases: in vivo
[1] = system: ragweed (common ragweed, Ambrosia elatior); assay: Test B pre-/postemergence plant response; conditions: Preemergence
In short: (§1)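 Visual ratings on a 0–100 scale (100 = complete control) were made versus untreated controls 13–15 days after treatment in a greenhouse. Compounds in surfactant-containing non-phytotoxic solvent were applied preemergence to seeds in loam–sand blend or postemergence to 1- to 4-leaf plants (2–18 cm).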

[2] = system: galium (catchweed bedstraw, Galium aparine); assay: Test B pre-/postemergence plant response; conditions: Preemergence
In short: as §1

[3] = system: Russian thistle (Salsola kali); assay: Test B pre-/postemergence plant response; conditions: Preemergence
In short: as §1

[4] = system: giant foxtail (Setaria faberii); assay: Test B pre-/postemergence plant response; conditions: for pest or weed control at 31 g/ha: 31 g ai/ha; for pest or weed control at 125 g/ha: 125 g ai/ha
In short: as §1

[5] = system: ducksalad (Heteranthera limosa); assay: Test B flooded paddy test
In short: (§2)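 Ratings are visual, 0–100 (100 = complete control), taken versus untreated controls 13 to 15 days after treatment in the greenhouse. Compound went straight into paddy water held 3 cm above soil, applied to 2-leaf-stage plants of four species.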

[6] = system: barnyardgrass (Echinochloa crus-galli); assay: Test B flooded paddy test
In short: as §2

[7] = system: umbrella sedge (Cyperus difformis); assay: Test B flooded paddy test
In short: as §2

rice (Oryza sativa) = assay: Test B flooded paddy test
In short: as §2

[8] = 31 g ai/ha, scale 0 to 100 (0 no effect, 100 complete control)
[9] = 62 g ai/ha, scale 0 to 100, 0 no effect, 100 complete control
[10] = 125 g ai/ha, scale 0 to 100, 0 no effect, 100 complete control
[11] = Flood, 31 g ai/ha, scale 0 to 100 (0 no effect, 100 complete control)

In the case of `COCCCn1c(-c2ccccc2)ncc(C(=O)C2=C(O)CCCC2=O)c1=O` [Compound 81, 5-[(2-hydroxy-6-oxo-cyclohexen-1-yl)carbonyl]-3-(3-methoxypropyl)-2-phenyl-4(3H)-pyrimidinone], the pest or weed control at 31 g/ha ([1]; Ambrosia artemisiifolia, pre-emergence, 360 h, 31 g ai/ha, scale 0 to 100 (0 no effect, 100 complete control), read-out: Plant response rating, Ragweed) is reported as 60%, the pest or weed control at 62 g/ha ([1]; Ambrosia artemisiifolia, pre-emergence, 360 h, 62 g ai/ha, scale 0 to 100 (0 no effect, 100 complete control), read-out: Plant response rating, Ragweed) is reported as 85% and the pest or weed control at 125 g/ha ([1]; Ambrosia artemisiifolia, pre-emergence, 360 h, 125 g ai/ha, scale 0 to 100, 0 no effect, 100 complete control, read-out: Plant response rating, Ragweed) is reported as 90%. The “Ragweed plant response rating” value ([1]; 250 g ai/ha, 0 to 100 scale) was 90, the “Plant response rating, Galium” value [2, 8] was 85 and the “Plant response rating, Galium” value [2, 9] was 100. The “Plant response rating, Galium” value [2, 10] was 100, the “Galium plant response rating” value ([2]; 250 g ai/ha, 0 to 100 scale) was 100 and the “Plant response rating, Russian Thistle” value [3, 8] was 100. For the same compound, the “Plant response rating, Russian Thistle” value [3, 9] was 100, the “Plant response rating, Russian Thistle” value [3, 10] was 100 and the “Russian Thistle plant response rating” value ([3]; 250 g ai/ha, 0 to 100 scale) was 100. For the same compound, the “Foxtail, Giant plant response rating (0 to 100 scale)” value ([4]; 62 g ai/ha, postemergence, 0 is no effect, 100 is complete control, 13 to 15 days) was 85, the “Foxtail, Giant plant response rating” value ([4]; Preemergence, 250 g ai/ha, 0 to 100 scale) was 98 and the pest or weed control at 31 g/ha ([4]; Setaria faberi, post-emergence, postemergence, scale 0 to 100, 0 is no effect, 100 is complete control, read-out: Plant response rating, Foxtail, Giant) was 75%. For the same compound, the pest or weed control at 125 g/ha ([4]; Setaria faberi, post-emergence, Postemergence, visual rating after 13 to 15 days, scale 0 (no effect) to 100 (complete control)) was 95%, the pest or weed control at 250 g/ha ([4]; Setaria faberi, post-emergence, Postemergence, 250 g ai/ha, scale 0 to 100 (0 no effect, 100 complete control), read-out: Plant response rating, Foxtail, Giant) was 98% and the pest or weed control at 31 g/ha ([4]; Setaria faberi, pre-emergence, Preemergence, scale 0 to 100 (0 no effect, 100 complete control), read-out: Plant response rating, Foxtail, Giant) was 60%. The pest or weed control at 62 g/ha ([4]; Setaria faberi, pre-emergence, Preemergence, 62 g ai/ha, scale 0 to 100, 0 no effect, 100 complete control, read-out: Plant response rating, Foxtail, Giant) was 75%, the pest or weed control at 125 g/ha ([4]; Setaria faberi, pre-emergence, Preemergence, scale 0 to 100, 0 no effect, 100 complete control, read-out: Plant response rating, Foxtail, Giant) was 85% and the “Ducksalad plant response rating” value [5, 11] was 0. It also gave a pest or weed control at 250 g/ha ([5]; Heteranthera limosa, 360 h, 250 g ai/ha, flooded paddy test, visual rating on 0 to 100 scale (0 no effect, 100 complete control) after 13 to 15 days, read-out: Plant response rating, Flood, Ducksalad) of 40%, a pest or weed control at 62 g/ha ([5]; Heteranthera limosa, 360 h, Flood (flooded paddy test), 62 g ai/ha, scale of 0 to 100 where 0 is no effect and 100 is complete control, 13 to 15 days, read-out: Plant response rating, Ducksalad) of 0% and a pest or weed control at 125 g/ha ([5]; Heteranthera limosa, 360 h, Flood (flooded paddy test), 125 g ai/ha, scale 0 to 100, 0 is no effect, 100 is complete control, 13 to 15 days, read-out: Plant response rating, Ducksalad) of 15%. For the same compound, the pest or weed control at 250 g/ha ([6]; Echinochloa crus-galli, 360 h, 250 g ai/ha, flooded paddy test, visual rating on 0 to 100 scale (0 no effect, 100 complete control) after 13 to 15 days, read-out: Plant response rating, Flood, Barnyardgrass) was 60%, the pest or weed control at 62 g/ha ([6]; Echinochloa crus-galli, 360 h, Flood (flooded paddy test), 62 g ai/ha, scale of 0 to 100 where 0 is no effect and 100 is complete control, 13 to 15 days, read-out: Plant response rating, Barnyardgrass) was 0% and the pest or weed control at 125 g/ha ([6]; Echinochloa crus-galli, 360 h, Flood (flooded paddy test), 125 g ai/ha, scale 0 to 100, 0 is no effect, 100 is complete control, 13 to 15 days, read-out: Plant response rating, Barnyardgrass) was 40%. For the same compound, the “Barnyardgrass plant response rating” value [6, 11] was 0, the pest or weed control at 250 g/ha ([7]; Cyperus difformis, 360 h, 250 g ai/ha, flooded paddy test, visual rating on 0 to 100 scale (0 no effect, 100 complete control) after 13 to 15 days, read-out: Plant response rating, Flood, Sedge, Umbrella) was 40% and the pest or weed control at 62 g/ha ([7]; Cyperus difformis, 360 h, Flood (flooded paddy test), 62 g ai/ha, scale of 0 to 100 where 0 is no effect and 100 is complete control, 13 to 15 days, read-out: Plant response rating, Sedge, Umbrella) was 0%. The pest or weed control at 125 g/ha ([7]; Cyperus difformis, 360 h, Flood (flooded paddy test), 125 g ai/ha, scale 0 to 100, 0 is no effect, 100 is complete control, 13 to 15 days, read-out: Plant response rating, Sedge, Umbrella) was 30%, the “Sedge, Umbrella plant response rating” value [7, 11] was 0 and the “Rice plant response rating” value (rice (Oryza sativa); [11]) was 0. The plant injury at 250 g/ha (rice (Oryza sativa); Oryza sativa, 250 g ai/ha, flooded paddy test, visual rating on 0 to 100 scale (0 no effect, 100 complete control) after 13 to 15 days, read-out: Plant response rating, Flood, Rice) was 15%, the plant injury at 62 g/ha (rice (Oryza sativa); Oryza sativa, Flood (flooded paddy test), 62 g ai/ha, scale of 0 to 100 where 0 is no effect and 100 is complete control, 13 to 15 days, read-out: Plant response rating, Rice) was 0% and the plant injury at 125 g/ha (rice (Oryza sativa); Oryza sativa, Flood (flooded paddy test), 125 g ai/ha, scale 0 to 100, 0 is no effect, 100 is complete control, 13 to 15 days, read-out: Plant response rating, Rice) was 15%.

Source: patent US8952024B2, “Herbicidal pyrimidone derivatives” (E I du Pont de Nemours and Company, priority 2009, dated 2015)
